Results from the supplement of paper PMC11208160.

Assay: recombinant barcode read abundance after kanamycin selection (control-corrected) (log10(CPM+1)); higher = more efficient recombination; sequences stand for … in AGTGCAGAGAAAATCGGCCAGTTTTCTCTGCCTGCAGTCCGCATGCCGT…AGATTTATGCAGCGGACTGCCTTTCTCCCAAAGTGATAAACCGGACAGTATCATGGACCGGTTTTCCCGGTAATCCGTATTTGCAAGGTTGGTTTCACT; site = the 11-nt target
Experimental: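 Pooled E. coli target-specificity screen for the IS621 bridge recombinase. Each library plasmid pairs an 11-nt target (CT core) with a bridge RNA whose target-binding loop (9-nt LTG + 4-nt RTG) is reprogrammed; the rest of the 177-nt WT IS621 bridge RNA scaffold is fixed. The plasmid is co-electroporated with a WT donor plasmid; recombinase is induced with 0.1 mM IPTG and recombinants are selected on kanamycin. Recombinant barcodes are sequenced, converted to CPM, averaged over two biological replicates and corrected by the unselected control CPM. Molecule = full bridge RNA written as DNA: LTG = specificity nt 1-9, RTG = reverse complement of specificity nt 8-11, in the WT scaffold.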
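Note: IS621 recombinase and bridge RNA in Escherichia coli cells.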

“AGCCCTCCTTGGGTTCTAACCTGTTGCTT (site AGCCCTCCTGA)” and “AGCCCTCCTTGGGTTCTAACCTGTTGCTT (site AGCCCTCCTTA)” are within 0.2 log units of each other in “recombinant barcode read abundance (log10)” value: 0.038 for the first, 0.0347 for the second.

First: AGCCTCCCTTGGGTTCTAACCTGTTGCCT (site AGACTCCCTAG)
Second: AGCCTCCCTTGGGTTCTAACCTGTTGCCT (site AGCCTCCCTAG)
The “recombinant barcode read abundance (log10)” value of the first is lower: 0.089 for the first, 0.474 for the second.

Going from “AGCCTCCCTTGGGTTCTAACCTGTTGCCT (site AGGCTCCCTAG)” to “AGCCTCCCTTGGGTTCTAACCTGTTGCCT (site AGTCTCCCTAG)”, the “recombinant barcode read abundance (log10)” value rises from 0.0381 to 0.578.

First: AGCCTGACTTGGGTTCTAACCTGTTGCCT (site AGCCTGACTAG)
Second: AGCCTGACTTGGGTTCTAACCTGTTGCCT (site AGCCTGCCTAG)
The “recombinant barcode read abundance (log10)” value of the first is higher: 0.741 for the first, 0.313 for the second.

Compared with “AGCCTGACTTGGGTTCTAACCTGTTGCCT (site AGCCTGGCTAG)”, “AGCCTGACTTGGGTTCTAACCTGTTGCCT (site AGCCTGTCTAG)” is lower in “recombinant barcode read abundance (log10)” value: 0.332 for the first, 0 for the second.

“AGCCTGGCTTGGGTTCTAACCTGTTGCCT (site AGCCTGACTAG)” and “AGCCTGGCTTGGGTTCTAACCTGTTGCCT (site AGCCTGCCTAG)” are within 0.2 log units of each other in “recombinant barcode read abundance (log10)” value: 0.302 for the first, 0.235 for the second.

Going from “AGCCTGGCTTGGGTTCTAACCTGTTGCCT (site AGCCTGGCTAG)” to “AGCCTGGCTTGGGTTCTAACCTGTTGCCT (site AGCCTGTCTAG)”, the “recombinant barcode read abundance (log10)” value falls from 0.594 to 0.0926.

“AGCGCTTCTTGGGTTCTAACCTGTTGCCT (site AACGCTTCTAG)” and “AGCGCTTCTTGGGTTCTAACCTGTTGCCT (site ACCGCTTCTAG)” are within 0.2 log units of each other in “recombinant barcode read abundance (log10)” value: 0.241 for the first, 0.423 for the second.

Going from “AGCGCTTCTTGGGTTCTAACCTGTTGCCT (site AGCGCTTCTAG)” to “AGCGCTTCTTGGGTTCTAACCTGTTGCCT (site ATCGCTTCTAG)”, the “recombinant barcode read abundance (log10)” value falls from 0.454 to 0.0212.

Going from “AGCGGACCTTGGGTTCTAACCTGTTGCCT (site AGCGGACCTAG)” to “AGCGGACCTTGGGTTCTAACCTGTTGCCT (site AGCGGCCCTAG)”, the “recombinant barcode read abundance (log10)” value falls from 1.45 to 0.133.

“AGCGGACCTTGGGTTCTAACCTGTTGCCT (site AGCGGGCCTAG)” and “AGCGGACCTTGGGTTCTAACCTGTTGCCT (site AGCGGTCCTAG)” are within 0.2 log units of each other in “recombinant barcode read abundance (log10)” value: 0.188 for the first, 0.0865 for the second.

“AGCTCACCTTGGGTTCTAACCTGTTGCCT (site AGCTCACCTAG)” and “AGCTCACCTTGGGTTCTAACCTGTTGCCT (site AGCTCATCTAG)” are within 0.2 log units of each other in “recombinant barcode read abundance (log10)” value: 0.216 for the first, 0.147 for the second.

“AGCTTACCTTGGGTTCTAACCTGTTGCCT (site AGCTTACCTAG)” and “AGCTTACCTTGGGTTCTAACCTGTTGCCT (site CGCTTACCTAG)” are within 0.2 log units of each other in “recombinant barcode read abundance (log10)” value: 0.204 for the first, 0.212 for the second.

“AGCTTACCTTGGGTTCTAACCTGTTGCCT (site GGCTTACCTAG)” and “AGCTTACCTTGGGTTCTAACCTGTTGCCT (site TGCTTACCTAG)” are within 0.2 log units of each other in “recombinant barcode read abundance (log10)” value: 0.105 for the first, 0.0503 for the second.

First: AGCTTAGCTTGGGTTCTAACCTGTTGCCC (site AGCTTAGCTAG)
Second: AGCTTAGCTTGGGTTCTAACCTGTTGCCC (site AGCTTAGCTCG)
The “recombinant barcode read abundance (log10)” value of the first is higher: 0.306 for the first, 0.0502 for the second.

Going from “AGCTTAGCTTGGGTTCTAACCTGTTGCCC (site AGCTTAGCTGG)” to “AGCTTAGCTTGGGTTCTAACCTGTTGCCC (site AGCTTAGCTTG)”, the “recombinant barcode read abundance (log10)” value falls from 0.395 to 0.0493.

First: AGCTTGCCTTGGGTTCTAACCTGTTGCAG (site AGCTTGCCTCT)
Second: AGCTTGCCTTGGGTTCTAACCTGTTGCAG (site CATAGCGCTAG)
The “recombinant barcode read abundance (log10)” value of the first is higher: 0.717 for the first, 0.277 for the second.

“AGCTTTGCTTGGGTTCTAACCTGTTGCCT (site AGCATTGCTAG)” and “AGCTTTGCTTGGGTTCTAACCTGTTGCCT (site AGCCTTGCTAG)” are within 0.2 log units of each other in “recombinant barcode read abundance (log10)” value: 0.015 for the first, 0.171 for the second.

First: AGCTTTGCTTGGGTTCTAACCTGTTGCCT (site AGCGTTGCTAG)
Second: AGCTTTGCTTGGGTTCTAACCTGTTGCCT (site AGCTTTGCTAG)
The “recombinant barcode read abundance (log10)” value of the first is higher: 0.669 for the first, 0.0693 for the second.

Going from “AGGAACCCTTGGGTTCTAACCTGTTGCTG (site AGGAACCCTAA)” to “AGGAACCCTTGGGTTCTAACCTGTTGCTG (site AGGAACCCTCA)”, the “recombinant barcode read abundance (log10)” value rises from 0.712 to 1.78.

“AGGAACCCTTGGGTTCTAACCTGTTGCTG (site AGGAACCCTGA)” and “AGGAACCCTTGGGTTCTAACCTGTTGCTG (site AGGAACCCTTA)” are within 0.2 log units of each other in “recombinant barcode read abundance (log10)” value: 0.106 for the first, 0.08 for the second.

Compared with “AGGACGACTTGGGTTCTAACCTGTTGCCT (site AGCGCGACTAG)”, “AGGACGACTTGGGTTCTAACCTGTTGCCT (site AGGACGACTAG)” is higher in “recombinant barcode read abundance (log10)” value: 0.0505 for the first, 0.376 for the second.

First: AGGAGAACTTGGGTTCTAACCTGTTGCCT (site AGCATAACTAG)
Second: AGGAGAACTTGGGTTCTAACCTGTTGCCT (site AGGAGAACTAG)
The “recombinant barcode read abundance (log10)” value of the first is lower: 0.447 for the first, 1.35 for the second.

“AGGAGCCCTTGGGTTCTAACCTGTTGCTC (site AGGAGCCCTAA)” and “AGGAGCCCTTGGGTTCTAACCTGTTGCTC (site AGGAGCCCTCA)” are within 0.2 log units of each other in “recombinant barcode read abundance (log10)” value: 0.124 for the first, 0.152 for the second.

Compared with “AGGAGCCCTTGGGTTCTAACCTGTTGCTC (site AGGAGCCCTGA)”, “AGGAGCCCTTGGGTTCTAACCTGTTGCTC (site AGGAGCCCTTA)” is lower in “recombinant barcode read abundance (log10)” value: 0.377 for the first, 0.0844 for the second.

First: AGGAGCCCTTGGGTTCTAACCTGTTGCTT (site AGGAGCCCTAA)
Second: AGGAGCCCTTGGGTTCTAACCTGTTGCTT (site AGGAGCCCTCA)
The “recombinant barcode read abundance (log10)” value of the first is higher: 1.25 for the first, 0.0777 for the second.

First: AGGAGCCCTTGGGTTCTAACCTGTTGCTT (site AGGAGCCCTGA)
Second: AGGAGCCCTTGGGTTCTAACCTGTTGCTT (site AGGAGCCCTTA)
The “recombinant barcode read abundance (log10)” value of the first is lower: 0.0286 for the first, 0.271 for the second.

Compared with “AGGAGCGCTTGGGTTCTAACCTGTTGCCT (site AGCAGCTCTAG)”, “AGGAGCGCTTGGGTTCTAACCTGTTGCCT (site AGGAGCGCTAG)” is higher in “recombinant barcode read abundance (log10)” value: 0.105 for the first, 1.95 for the second.

Going from “AGGAGTCCTTGGGTTCTAACCTGTTGCAG (site AGGAGTCCTCT)” to “AGGAGTCCTTGGGTTCTAACCTGTTGCAG (site GTACAAGCTAG)”, the “recombinant barcode read abundance (log10)” value falls from 2.24 to 0.239.

Going from “AGGCAGACTTGGGTTCTAACCTGTTGCCA (site AGGAAGACTTG)” to “AGGCAGACTTGGGTTCTAACCTGTTGCCA (site AGGCAGACTTG)”, the “recombinant barcode read abundance (log10)” value rises from 0.0571 to 0.699.

Going from “AGGCAGACTTGGGTTCTAACCTGTTGCCA (site AGGGAGACTTG)” to “AGGCAGACTTGGGTTCTAACCTGTTGCCA (site AGGTAGACTTG)”, the “recombinant barcode read abundance (log10)” value rises from 0.216 to 0.639.

Compared with “AGGCAGTCTTGGGTTCTAACCTGTTGCCT (site AGGCAGTCTAG)”, “AGGCAGTCTTGGGTTCTAACCTGTTGCCT (site AGGCCGTCTAC)” is lower in “recombinant barcode read abundance (log10)” value: 0.444 for the first, 0.0845 for the second.

“AGGCGCCCTTGGGTTCTAACCTGTTGCAA (site AGGCGCCCTAT)” and “AGGCGCCCTTGGGTTCTAACCTGTTGCAA (site AGGCGCCCTCT)” are within 0.2 log units of each other in “recombinant barcode read abundance (log10)” value: 0.187 for the first, 0.0506 for the second.
